From US12331324B2, “Versatile peroxidases and uses thereof” (Yeda Research and Development Co. Ltd., priority 2021, dated 2025)
Read-outs that look alike come from different tables or passages of the source.

Experiments:
[1] = tested on: Ganoderma sp. 10597_SS1 versatile peroxidase VP8, designed variant 8H, SEQ ID NO: 2 (wild type SEQ ID NO: 5; mutations R4P, M5S, E34T, G59A, T65W, A67Q, V85I …); type: biochemical; details: for Kcat / Kcat/KM / Km: 25° C.
Procedure: (§1) VPs production and purification. A colony from S. cerevisiae clone containing the VP gene (5H, 8H, 11H, VPL_R4, VPL_2-1B) was picked from an SC drop-out plate, inoculated in 25 mL minimal medium in a 250 flask, and incubated for 48 hours at 30° C. and 225 rpm. An aliquot of cells was removed and used to inoculate 100 mL of minimal medium in a 1 L flask to an OD600 nm of 0.25-0.30, under the same conditions. The cells completed two growth phases (8-10 hours, reaching OD600 nm˜1-1.5), then the expression medium (450 mL) was inoculated with 50 mL of the pre-culture in a 2 L flask (OD600 nm˜0.1). Cells were incubated for a further ˜60 hours at 30° C. and 225 rpm. Thereafter, cells were centrifuged at 6000 g for 15 min at 4° C., and the supernatant was collected and filtered with a 0.2 μm filter bottle.
(§2) Filtrates were subjected to fractional precipitation with ammonium sulfate in two steps: first cut of 50%, followed by centrifugation and elimination of the precipitates, and the second cut of 70%. Buffer A was used to dissolve the pellet, and the dissolved protein solution was shaken overnight at 4° C. for maximal recovery. The dissolved fraction was then centrifuged, filtrated, concentrated, and subjected to overnight dialysis against buffer A. Filtered fractions of the VP proteins after dialysis were uploaded into a HiTrap™ Q HP Column (GE Healthcare Bio-Sciences AB, Uppsala, Sweden) pre-equilibrated with buffer A, through ÄKTA pure protein purification system (GE Healthcare Bio-Sciences AB). Proteins were eluted in a two-step linear gradient from 0 to 1 M NaCl, at a flow rate of 1 ml/min: the first phase of 0-25% over 15 column volumes (75 min) and second phase of 25-100% over 2 column volumes (10 min). The fractions of the peak with the highest VP activity (and absorption at 407 nm) were pooled, concentrated, and dialyzed against 20 mM piperazine buffer pH=5.5 and 150 mM NaCl (buffer B). Protein fractions were then uploaded onto a Superdex 75 Increase 10/300 GL (GE Healthcare Bio-Sciences AB) through the ÄKTA pure system pre-equilibrated with buffer B. The fractions of the peak with the highest VP activity (and absorption at 407 nm) were pooled and dialyzed against buffer A. Pure protein samples were stored at 4° C. Protein concentration was determined using the BCA assay with bovine serum albumin as a standard.
(§3) pH activity profiles. For purified 5H, 8H, 11H, and R4, 20 μL protein samples (diluted in buffer A) were transferred into activity 96 plates (in the case of VA and MnSO4, UV-Star plates; Greiner Bio-One GmbH, Kremsmünster, Austria) and then, 180 μL of the reaction mixture were added to each row in the plate, and absorption at the appropriate wavelength (substrate-dependent) was recorded immediately in a kinetic mode in a plate-reader at 25° C. The reaction mixtures contained a specific substrate in 100 mM citrate-phosphate-borate buffer (pH 2, 3, 3.5, 4, 5, 6, 7, 8) and 0.1 mM H2O2. The activities were recorded in triplicate. The following substrate concentrations and absorption wavelengths were used: ABTS: 2 mM, 418 nm; DMP: 5 mM, 469 nm; RB5: 0.05 mM, 598 nm; VA: 30 mM, 310 nm. For manganese, the reaction mixtures contained 60 mM MnSO4 in 100 mM sodium tartrate buffer (pH 3, 3.5, 4, 4.5, 5) and 0.1 mM H2O2, and the Mn^3+-tartrate complex absorption was read at 238 nm. For each protein and substrate, the activities were normalized to the activity at optimal pH for residual activity calculations. Each activity assay was conducted in triplicate.
(§4) Kinetic parameters. Steady-state kinetics were determined for 5H, 8H, 11H and R4, by measuring the activity (initial rates) in increasing concentrations of the substrate, and the KM and Kcat values were calculated by fitting the results to the Michaelis-Menten model (V0=KcatES/(KM+S)).

[2] = biological target: Pleurotus eryngii versatile peroxidase VPL, variant R4 (VPL-R4, previously evolved for expression; wild type SEQ ID NO: 8) (Pleurotus eryngii, UniProt O94753); type: biochemical; details: 25° C.
Procedure: as §1, §2, §3, §4

[3] = tested on: Pleurotus ostreatus versatile peroxidase VP5, designed variant 5H, SEQ ID NO: 1 (wild type SEQ ID NO: 4; mutations A11S, V15T, A17S, A19E, P26D, D38G, A40Q …)
Procedure: as §1
Filtrates were subjected to fractional precipitation with ammonium sulfate in two steps: first cut of 50%, followed by centrifugation and elimination of the precipitates, and the second cut of 70%. […] Protein concentration was determined using the BCA assay with bovine serum albumin as a standard.
pH activity profiles. […] The activities were recorded in triplicate. […] For manganese, the reaction mixtures contained 60 mM MnSO4 in 100 mM sodium tartrate buffer (pH 3, 3.5, 4, 4.5, 5) and 0.1 mM H2O2, and the Mn^3+-tartrate complex absorption was read at 238 nm. […]

[4] = tested on: Pleurotus eryngii versatile peroxidase VPL, variant R4 (VPL-R4, previously evolved for expression; wild type SEQ ID NO: 8); type: biochemical
Procedure: as §1, §2, §3, §4

[5] = high efficiency site, optimum pH, 0.2 mM H2O2
[6] = low efficiency site, optimum pH, 0.2 mM H2O2
[7] = high efficiency site, optimum pH, 1 mM H2O2
[8] = low efficiency site, optimum pH, 1 mM H2O2
[9] = VA, RB5, optimum pH, 0.2 mM H2O2
[10] = H2O2 kinetics with 3 mM ABTS, optimum pH for ABTS
[11] = H2O2 kinetics with 2 mM ABTS, optimum pH for ABTS

Chain of Pleurotus eryngii versatile peroxidase VPL, variant R4 (VPL-R4, previously evolved for expression; wild type SEQ ID NO: 8) (Pleurotus eryngii, UniProt O94753) (O94753 31-361, change not shown): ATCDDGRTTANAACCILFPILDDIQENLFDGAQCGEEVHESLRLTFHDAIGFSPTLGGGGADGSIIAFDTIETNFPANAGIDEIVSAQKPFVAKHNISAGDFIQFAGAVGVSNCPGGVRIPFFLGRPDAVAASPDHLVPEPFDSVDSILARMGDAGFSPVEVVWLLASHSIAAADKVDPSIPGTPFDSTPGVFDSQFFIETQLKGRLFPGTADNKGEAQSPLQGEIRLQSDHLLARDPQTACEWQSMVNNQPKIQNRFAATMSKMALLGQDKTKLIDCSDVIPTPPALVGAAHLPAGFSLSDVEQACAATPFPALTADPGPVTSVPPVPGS

SMILES | Kcat [1, 5] | Kcat/KM [1, 5] | Km [1, 5] | Kcat [1, 6] | Kcat/KM [1, 6] | Km [1, 6] | Kcat [2, 7] | Kcat/KM [2, 7] | Km [2, 7] | Kcat [2, 8] | Kcat/KM [2, 8] | Km [2, 8] | Kcat [1, 9] | Kcat/KM [1, 9] | Km [1, 9] | Kcat ([2]; VA, RB5, optimum pH, 1 mM H2O2) | Kcat/KM ([2]; VA, RB5, optimum pH, 1 mM H2O2) | Km ([2]; VA, RB5, optimum pH, 1 mM H2O2) | further results
COc1cccc(OC)c1O [DMP, 2,6-dimethoxyphenol] | 2.2 ± 0.1 s⁻¹ | 94600 ± 8200 M⁻¹ s⁻¹ | 22.9 ± 1.8 µM | 3.6 ± 0.1 s⁻¹ | 22100 ± 1600 M⁻¹ s⁻¹ | 164 ± 12 µM | 0.74 ± 0.05 s⁻¹ | 542 ± 113 s⁻¹ mM⁻¹ | 1.4 ± 0.3 µM | 132 ± 7 s⁻¹ | 8.2 ± 1.0 s⁻¹ mM⁻¹ | 16100 µM | – | – | – | – | – | – | heme-dependent affinity for DMP, fold higher relative to the other VPs ([1]; 8H relative to the other VPs (5H, 11H, R4)): at least 70 fold
Nc1c(N=Nc2ccc(S(=O)(=O)CCOS(=O)(=O)O)cc2)c(S(=O)(=O)O)cc2cc(S(=O)(=O)O)c(N=Nc3ccc(S(=O)(=O)CCOS(=O)(=O)O)cc3)c(O)c12 [RB5, reactive black 5] | – | – | – | – | – | – | – | – | – | – | – | – | 1.1 ± 0.1 s⁻¹ | 65000 ± 7200 M⁻¹ s⁻¹ | 17.3 ± 1.7 µM | 0.63 ± 0.02 s⁻¹ | 487 ± 51 s⁻¹ mM⁻¹ | 1.3 ± 0.1 µM | –
CCn1c(=NN=c2sc3cc(S(=O)(=O)O)ccc3n2CC)sc2cc(S(=O)(=O)O)ccc21 [ABTS, 2,2′-azino-bis (3-ethylbenzothiazoline-6-sulfonic acid)] | 7.8 ± 0.3 s⁻¹ | 1.55e+06 ± 260000 M⁻¹ s⁻¹ | 5 ± 0.8 µM | 28.2 ± 0.9 s⁻¹ | 35400 ± 4400 M⁻¹ s⁻¹ | 795 ± 96 µM | 1.3 ± 0.1 s⁻¹ | 3,300 ± 700 sec^−1 mM^−1 | 0.39 ± 0.08 µM | 400 ± 21 s⁻¹ | 405 ± 49 s⁻¹ mM⁻¹ | 987 ± 107 µM | – | – | – | – | – | – | –
COc1ccc(CO)cc1OC [VA, veratryl alcohol] | – | – | – | – | – | – | – | – | – | – | – | – | 5.5 ± 0.1 s⁻¹ | 550 ± 20 M⁻¹ s⁻¹ | 10100 µM | 5.4 ± 0.4 s⁻¹ | 0.7 ± 0.1 s⁻¹ mM⁻¹ | 7400 µM | affinity for VA relative to the next best enzyme ([3]; 5H relative to the next best enzyme): more than an order of magnitude higher affinity
OO [H2O2, Hydrogen peroxide] | – | – | – | – | – | – | – | – | – | – | – | – | – | – | – | – | – | – | H2O2 affinity, fold lower than seen in 11H ([1]; 8H relative to 11H): 2 fold; Kcat [1, 10]: 12.1 ± 0.6 s⁻¹; Kcat/KM [1, 10]: 135000 ± 21000 M⁻¹ s⁻¹; Km [1, 10]: 89.7 ± 12.9 µM; Kcat [2, 11]: 230 ± 9 s⁻¹; Kcat/KM [2, 11]: 503 ± 61 s⁻¹ mM⁻¹; Km [2, 11]: 457 ± 53 µM; H2O2 affinity, fold lower than seen in 11H [4]: 12 fold; H2O2 affinity, fold lower than seen in 11H ([3]; 5H relative to 11H): 5 fold
